Measurements reported in patent publication US6673965B1, “Hydroxamic acid derivative as inhibitor of the formation of soluble human CD23” (SmithKline Beecham P.L.C., priority 1999, dated 2004).
Several values for one entry are separate records, joined by “and”; a condition that tells them apart may be missing. Equal entries are not always repeated. Where two headings read alike, the source gives them in different places.

What was measured:
[1] = i.v. pharmacokinetic parameters and oral bioavailability in male Cynomolgus monkeys; format: in vivo
Description: (§1) Procedure 4: The bioavailability of test compounds was investigated using the following bio-equivalence studies.
A Study to Estimate the i.v. Pharmacokinetic Parameters and Oral Bioavailability in Male Cynomolgus Monkeys
This study was conducted using a crossover design on two separate studv days, seven days apart. Three male Cynomolgus monkeys were used for this study. On both study days, a catheter was placed in a saphenous vein for collection of blood samples. On study day one, a catheter also was temporarily placed in a contralateral saphenous vein for i.v. infusion.
(§2) On study day one, each animal (fasted) received test compound (2.0 umol/kg target dose) as a 1-h intravenous infusion (4.0 mL/kg). The dose solution was prepared in 20% aqueous Encapsin® (pH=8.0) and contained 1% DMSO. Encapsin® (Cerestar USA Inc., Hammond, Ind.) is hydroxypropyl-beta-cyclodextrin, a cyclic oligosaccharide (7 glucose units) used to enhance solubility in the preparation of dose solutions that otherwise would require formulation using non-aqueous solvents.
On study day two, each animal (fasted) received test compound (6.0 umol/kg target dose) by oral gavage (8.0 mL/kg). The dose solution was prepared in 5% aqueous succinated porcine gelatin (pH=8.0) and contained 1% DMSO.
Blood samples were obtained from the femoral vein catheter; plasma was isolated by centrifugation. Plasma concentrations of test compound were quantified by LC/MS/MS (LLQ=10 ng/mL). Noncompartmental methods were used for pharmacokinetic analysis of plasma concentration versus time data.

[2] = i.v. pharmacokinetic parameters and oral bioavailability in male Sprague Dawley rat; format: in vivo; settings: for half-life: rat, 2 mg/kg, two-compartment model
Description: as §1
A Study to Estimate the i.v. Pharmacokinetic Parameters and Oral Bioavailability in Male Sprague Dawley Rat
This study was carried out using a crossover design on four separate study days. Three rats received surgically-implanted femoral vein catheters for infusion of test molecules at least three days prior to the start of the study. All doses in this study were prepared using crystalline test compound.
On study day one, the animals (fed) received test compound as a 30-min intravenous infusion at a target dosage of 4.0 umol/kg (4.0 mL/kg). The dose solution was prepared in 20% aqueous Encapsin® (pH=8.0) and contained 1% DMSO. Encapsin® (Cerestar USA Inc., Hammond, Ind.) is hydroxypropyl-beta-cyclodextrin, a cyclic oligosaccharide used to enhance solubility of compounds that otherwise would require formulation using non-aqueous solvents.
On study day two, the animals (fasted) received test compound as a solution at a target dosage of 8 umol/kg by oral gavage (16 mL/kg). The dose solution was prepared in 5% aqueous succinated porcine gelatin (pH=7.5) and contained 1% DMSO. Blood samples were collected from a lateral tail vein. A 25-uL aliquot of each whole blood sample was added to 25 uL of water and allowed to stand on ice for approximately 5 min to facilitate complete hemolysis; samples then were stored frozen until analvsis. Blood concentrations of test compound were quantified by LC/MS/MS (LLQ=10.0 ng/mL). […] Various compartmental models and weighting paradigms were employed; a two-compartment model with first-order elimination from the central compartment and iterative least squares weighting with a weight of 1/Y^2 provided the best fit to the observed data, according to standard model selection criteria (i.e., Akaike's Information Criterion, Schwartz Criterion, and sum of squared residuals). Pharmacokinetic parameters were calculated using the best-fit compartmental model; all calculations that required the use of AUC values (including bioavailability) were performed using the AUC recovered from noncompartmental analysis.

[3] = test system: TNFα release from human monocytes; assay: Inhibition of release of TNFα from human monocytes stimulated by LPS; format: cell-based; settings: at 10 uM; LPS 200 ng/ml, 18-20 hrs
Description: Procedure 3: The ability of test compounds to inhibit TNF release was investigated using the following procedure.
Assay for Inhibition of Release of TNFα From Human Monocytes Stimulated by Lipopolysaccharide (LPS) Endotoxin
Human monocytes, cultured in RPMI 1640 medium supplemented with 10% fetal calf serum, are centrifuged at 1000×g for 5 min and then resuspended in medium at 2×10^6 cells/ml. The cell suspension is aliquoted in 24 well plates, 1 ml per well. Compounds to be tested are dissolved in neat dimethyl sulfoxide (DMSO) and added to culture with the final DMSO concentration at 0.1%. Compounds are added to cells in triplicate wells. TNF α release is stimulated by addition of LPS to the cells at a final concentration of 200 ng/ml. Appropriate control cultures are set up in triplicates also. The plates are incubated for 18-20 hrs at 37° C., 5% CO2, then centrifuged at 1000×g for 5 min. A specific ELISA for human TNFα (SmithKline Beecham) is used to measure TNF levels in the cell-free culture supernatants.

[4] = test system: release of soluble CD23 from RPMI 8866 cell plasma membranes; assay: RPMI 8866 cell membrane CD23 cleavage activity assay; format: biochemical, human; settings: RPMI 8866 membranes, 37° C., sCD23 by EIA; read-out: IC50 (50% inhibition of production of sCD23)
Description: Procedure 1: The ability of test compounds to inhibit the release of soluble CD23 was investigated by use of the following procedure.
RPMI 8866 Cell Membrane CD23 Cleavage Activity Assay
Plasma membranes from RPMI 8866 cells, a human Epstein-Barr virus transformed B-cell line (Sarfati et al., Immunology 60 [1987] 539-547) expressing high levels of CD23 are purified using an aqueous extraction method. Cells resuspended in homogenization buffer (20 mM HEPES pH 7.4, 150 mM NaCl, 1.5 mM MgCl2, 1 mM DTT) are broken by N2 cavitation in a Parr bomb and the plasma membrane fraction mixed with other membranes is recovered by centrifugation at 10,000×g. […]
The fractionated membranes are incubated at 37° C. for times up to 4 hrs to produce fragments of CD23 which are separated from the membrane by filtration in 0.2 micron Durapore filter plates (Millipore) after quenching the assay with 5 uM Preparation 1 from P 30994. sCD23 released from the membrane is determined using the EIA kit from The Binding Site (Birmingham, UK) or a similar one utilizing MHM6 anti-CD23 mAb [Rowe et al., Int. […] The amount of soluble CD23 made by 0.5 ug membrane protein in a total volume of 50 ul phosphate-buffered saline is measured by EIA and compared to the amount made in the presence of various concentrations of inhibitors. […]

[5] = i.v. pharmacokinetic parameters and oral bioavailability in male Beagle dogs; format: in vivo; settings: Dog
Description: as §1
A Study to Estimate the i.v. Pharmacokinetic Parameters and Oral Bioavailability in Male Beagle Dogs
This study was conducted using a crossover design on two separate study days, seven days apart. Three male Beagle dogs were used in this study. On each study day, a catheter was temporarily placed in a cephalic vein for blood sampling; on study day one only, a catheter was also temporarily placed in a saphenous vein for i.v. infusion.
as §2, with “animal” for “animal (fasted)”
On study day two, each animal received test compound (6.0 umol/kg target dose ) by oral gavage (8.0 mL/kg). The dose solution was prepared in 5% aqueous succinated porcine gelatin (pH=7.5) and contained 1% DMSO.
Plasma concentrations of test compound were quantified by LC/MSIMS (LLQ=10 ng/mL). Noncompartmental methods were used for analysis of plasma concentration versus time data.

[6] = Monkey, iv dose = 0.92 mg/kg, individual values, 0.92 mg/kg
[7] = male, Sprague Dawley, whole blood, iv, i.v. dose = 2.0 mg/kg
[8] = male, Beagle, plasma, iv dose = 0.96 mg/kg

CNC(=O)[C@@H](NC(=O)[C@H](Cc1ccc2ccccc2c1)[C@H](OC(C)C)C(=O)NO)C(C)(C)C [N′-[4-(N-hydroxyamino)-3S-isopropoxy-2R-(2-naphthylmethyl)succinyl]-S-tert-leucine methylamide]
Oral F ([1]; Monkey, fasted, oral gavage 2.8 mg/kg Solution vs iv 0.92 mg/kg, individual values): 21.1% and 6.0% and 22.5% | MRT [1, 6]: 5.18 h and 0.992 h and 1.14 h | T1/2 [1, 6]: 11.5 h and 1.42 h and 3.47 h | Vdss [1, 6]: 4.09 L/kg and 1.11 L/kg and 0.827 L/kg | Cmax ([1]; male, cynomolgus monkey, 1-h i.v. infusion, iv dose = 0.92 mg/kg, plasma): 1010 ± 175 ng/mL | clearance ([1]; male, cynomolgus monkey, plasma, iv dose = 0.92 mg/kg): 14.7 ± 3.6 mL/min/kg | Oral F ([2]; fasted, oral gavage 3.7 mg/kg solution vs i.v. 2.0 mg/kg): 50.6 ± 10.6% | half-life ([2]; male, Sprague Dawley, whole blood, iv, i.v. dose = 2.0 mg/kg, read-out: T1/2 (α)): 0.18 ± 0.0883 h | half-life ([2]; male, Sprague Dawley, whole blood, iv, i.v. dose = 2.0 mg/kg, read-out: T1/2 (β)): 3.9 ± 2.32 h | Cmax ([2]; male, Sprague Dawley, whole blood, iv, 30-min i.v. infusion, i.v. dose = 2.0 mg/kg, blood): 1340 ± 296 ng/mL | MRT [2, 7]: 2.13 h | clearance [2, 7]: 26.4 ± 8.5 mL/min/kg | Vd ([2]; male, Sprague Dawley, whole blood, iv, i.v. dose = 2.0 mg/kg, read-out: Vdss): 3.25 ± 1.7 L/kg | effect on TNF release [3]: no effect | IC50 [4]: 60 nM | T1/2 ([5]; iv dose = 0.96 mg/kg, individual values, 0.96 mg/kg): 4.2 h and 4.32 h and 0.817 h | Oral F ([5]; oral gavage, po dose = 2.7 mg/kg vs iv 0.96 mg/kg): 29.0 ± 3.7% | MRT [5, 8]: 1.07 h | clearance [5, 8]: 10.6 ± 4.5 mL/min/kg | Vd ([5]; male, Beagle, plasma, iv dose = 0.96 mg/kg, read-out: Vdss): 0.563 ± 0.204 L/kg | Cmax ([5]; male, Beagle, 1-h i.v. infusion, iv dose = 0.96 mg/kg, plasma): 1410 ± 465 ng/mL
